Laboratory results: patent US20260092071A1, “COMPOUNDS AND COMPOSITIONS AS SMARCA2/4 DEGRADERS AND USES THEREOF” (REGENTS OF THE UNIVERSITY OF MICHIGAN, priority 2022, published 2026)

How the values were obtained:
SMARCA2 = SMARCA2 (Homo sapiens, UniProt P51531); assay: HiBiT assay for protein degradation, Hela SMARCA2-HiBiT cells (A series); assay type: cell-based; parameters: Hela cells were genetically modified via CRISPR/Cas9 to fuse HiBiT to the carboxy terminus of SMARCA2; host or cells: HeLa (CRISPR/Cas9 HiBiT knock-in); conditions: Hela SMARCA2-HiBiT cells, 24 hours treatment; for DC50: read-out: SMARC A2 Hela HiBit DC50; for Dmax: read-out: SMARC A2 Hela HiBit Dmax (%);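 for SMARC A2 Hela HiBit Dmax (%): 24 h compound treatment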
Summary of the method: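 SMARCA2 degradation was measured in HeLa cells whose endogenous SMARCA2 carries a carboxy-terminal HiBiT tag introduced by CRISPR/Cas9 (Promega CS302365). Cells were maintained in DMEM with FBS and penicillin-streptomycin. SMARCA2 levels were read at the end of the experiment by Nano-Glo® HiBiT lytic luminescence (Promega N3050) and analyzed in GraphPad Prism.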

SMARCA4 = SMARCA4 (Homo sapiens, UniProt P51532); assay: HiBiT assay for protein degradation, Hela SMARCA4-HiBiT cells (A series); assay type: cell-based; parameters: fuse HiBiT to the carboxy terminus of SMARCA2 (Promega CS302365) or SMARCA4 (Promega CS3023225); host or cells: HeLa (CRISPR/Cas9 HiBiT knock-in); conditions: Hela SMARCA4-HiBiT cells, 24 hours treatment; for DC50: read-out: SMARC A4 Hela HiBit DC50; for Dmax: read-out: SMARC A4 Hela HiBit Dmax
Summary of the method: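 SMARCA4 degradation was measured in HeLa cells in which HiBiT had been knocked into the SMARCA4 carboxy terminus via CRISPR/Cas9 (Promega CS3023225). Cells were maintained in DMEM with FBS and penicillin-streptomycin. At the end of treatment, SMARCA4 levels were read by lytic HiBiT luminescence (Nano-Glo®, Promega N3050), and data were analyzed with GraphPad Prism.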

Sequence of SMARCA2 (P51531 whole entry): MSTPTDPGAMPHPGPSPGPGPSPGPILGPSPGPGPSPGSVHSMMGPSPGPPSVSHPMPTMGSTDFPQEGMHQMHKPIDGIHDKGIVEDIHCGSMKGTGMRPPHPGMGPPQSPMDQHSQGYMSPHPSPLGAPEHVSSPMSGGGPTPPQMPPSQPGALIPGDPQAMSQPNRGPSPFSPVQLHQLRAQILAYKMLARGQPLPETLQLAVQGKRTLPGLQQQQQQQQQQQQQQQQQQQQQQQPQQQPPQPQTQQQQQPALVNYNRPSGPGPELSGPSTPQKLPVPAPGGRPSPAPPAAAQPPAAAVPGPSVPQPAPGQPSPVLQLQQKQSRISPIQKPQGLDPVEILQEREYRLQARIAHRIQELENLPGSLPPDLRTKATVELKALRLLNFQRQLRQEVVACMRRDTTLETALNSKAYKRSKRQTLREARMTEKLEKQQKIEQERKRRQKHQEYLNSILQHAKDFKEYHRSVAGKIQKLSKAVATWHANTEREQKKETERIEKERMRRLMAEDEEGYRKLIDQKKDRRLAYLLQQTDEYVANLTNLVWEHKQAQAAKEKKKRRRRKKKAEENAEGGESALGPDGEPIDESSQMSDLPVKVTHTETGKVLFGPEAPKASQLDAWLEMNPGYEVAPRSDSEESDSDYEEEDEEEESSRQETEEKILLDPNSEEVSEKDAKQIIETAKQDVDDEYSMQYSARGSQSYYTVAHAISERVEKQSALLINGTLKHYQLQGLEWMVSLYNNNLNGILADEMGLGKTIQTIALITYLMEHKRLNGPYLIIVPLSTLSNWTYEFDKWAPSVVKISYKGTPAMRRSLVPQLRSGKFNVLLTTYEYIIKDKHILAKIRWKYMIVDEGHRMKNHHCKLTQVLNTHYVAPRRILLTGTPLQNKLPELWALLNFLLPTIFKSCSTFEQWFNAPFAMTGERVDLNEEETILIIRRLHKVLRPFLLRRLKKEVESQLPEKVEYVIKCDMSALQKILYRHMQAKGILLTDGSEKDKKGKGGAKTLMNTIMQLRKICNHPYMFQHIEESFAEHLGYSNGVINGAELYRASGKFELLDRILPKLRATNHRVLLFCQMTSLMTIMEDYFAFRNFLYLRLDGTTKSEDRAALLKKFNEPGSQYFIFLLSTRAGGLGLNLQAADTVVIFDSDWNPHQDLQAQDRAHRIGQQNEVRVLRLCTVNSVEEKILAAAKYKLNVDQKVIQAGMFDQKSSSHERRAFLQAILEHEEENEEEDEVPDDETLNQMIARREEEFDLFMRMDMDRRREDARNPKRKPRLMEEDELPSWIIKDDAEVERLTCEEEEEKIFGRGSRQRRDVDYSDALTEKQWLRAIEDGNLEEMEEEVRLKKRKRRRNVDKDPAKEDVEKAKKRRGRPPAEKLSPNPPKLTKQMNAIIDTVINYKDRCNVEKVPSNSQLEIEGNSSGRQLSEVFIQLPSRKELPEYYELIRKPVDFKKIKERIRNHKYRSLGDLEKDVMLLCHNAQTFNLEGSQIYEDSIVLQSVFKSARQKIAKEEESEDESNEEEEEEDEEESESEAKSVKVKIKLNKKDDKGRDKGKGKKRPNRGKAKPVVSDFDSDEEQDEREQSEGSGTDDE
Sequence of SMARCA4 (P51532 whole entry): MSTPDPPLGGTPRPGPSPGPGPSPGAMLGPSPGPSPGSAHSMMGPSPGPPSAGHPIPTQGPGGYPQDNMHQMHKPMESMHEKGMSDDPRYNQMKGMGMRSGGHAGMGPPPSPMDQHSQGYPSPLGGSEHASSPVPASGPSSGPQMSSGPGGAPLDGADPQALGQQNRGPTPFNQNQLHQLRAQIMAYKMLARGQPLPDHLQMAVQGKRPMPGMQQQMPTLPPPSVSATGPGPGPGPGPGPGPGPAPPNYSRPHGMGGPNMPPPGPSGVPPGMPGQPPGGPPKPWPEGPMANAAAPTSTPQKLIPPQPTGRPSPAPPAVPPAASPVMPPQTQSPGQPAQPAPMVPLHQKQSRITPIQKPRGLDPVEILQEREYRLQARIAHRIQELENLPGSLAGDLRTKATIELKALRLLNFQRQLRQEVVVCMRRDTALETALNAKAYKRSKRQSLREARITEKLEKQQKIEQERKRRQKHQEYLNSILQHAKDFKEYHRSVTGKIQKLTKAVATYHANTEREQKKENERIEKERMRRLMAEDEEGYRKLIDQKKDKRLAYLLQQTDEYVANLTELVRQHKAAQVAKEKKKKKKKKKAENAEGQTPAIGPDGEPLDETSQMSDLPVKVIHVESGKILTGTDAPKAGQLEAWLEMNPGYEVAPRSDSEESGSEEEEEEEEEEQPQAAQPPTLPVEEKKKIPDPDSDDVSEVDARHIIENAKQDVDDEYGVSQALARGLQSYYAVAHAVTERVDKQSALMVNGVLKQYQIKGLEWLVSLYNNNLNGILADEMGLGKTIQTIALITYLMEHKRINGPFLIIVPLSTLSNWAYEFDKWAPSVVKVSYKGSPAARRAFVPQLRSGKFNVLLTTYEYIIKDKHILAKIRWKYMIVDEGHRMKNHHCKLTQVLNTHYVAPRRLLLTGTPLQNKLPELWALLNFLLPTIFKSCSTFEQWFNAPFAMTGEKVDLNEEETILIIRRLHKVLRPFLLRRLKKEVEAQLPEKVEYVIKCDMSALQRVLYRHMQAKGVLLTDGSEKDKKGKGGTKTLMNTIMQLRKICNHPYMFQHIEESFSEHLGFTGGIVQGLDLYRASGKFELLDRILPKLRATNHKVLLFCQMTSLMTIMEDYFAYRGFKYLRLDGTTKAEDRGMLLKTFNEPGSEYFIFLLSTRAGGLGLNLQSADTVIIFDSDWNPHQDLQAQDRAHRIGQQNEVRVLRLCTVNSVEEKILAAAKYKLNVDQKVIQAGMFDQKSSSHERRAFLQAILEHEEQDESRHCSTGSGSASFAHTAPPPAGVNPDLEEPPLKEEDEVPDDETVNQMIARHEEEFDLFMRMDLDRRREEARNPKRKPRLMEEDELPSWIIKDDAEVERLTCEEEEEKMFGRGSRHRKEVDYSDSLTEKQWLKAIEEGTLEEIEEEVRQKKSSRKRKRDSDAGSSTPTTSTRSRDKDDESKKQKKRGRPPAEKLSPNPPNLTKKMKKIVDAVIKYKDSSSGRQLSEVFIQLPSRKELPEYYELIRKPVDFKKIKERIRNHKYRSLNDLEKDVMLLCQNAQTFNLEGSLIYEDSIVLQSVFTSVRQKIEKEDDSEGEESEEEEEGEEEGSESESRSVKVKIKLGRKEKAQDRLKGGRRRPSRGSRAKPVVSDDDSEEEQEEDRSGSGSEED

| SMILES | DC50 (SMARCA2) [nM] | Dmax (SMARCA2) [%] | DC50 (SMARCA4) [nM] | Dmax (SMARCA4) [%] | SMARC A4 Hela HiBit DC50(nM) (SMARCA4) |
| --- | --- | --- | --- | --- | --- |
| Cc1ncsc1-c1ccc([C@H](CN2CCOCC2)NC(=O)[C@@H]2C[C@@H](O)CN2C(=O)[C@H](C(C)C)n2cc([C@H]3CC[C@H](CN4CCC(c5ccc6c(c5)-n5c(nc(=O)c7c(Cl)cccc75)C6(C)C)CC4)CC3)nn2)cc1 [Compound A104, (2S,4R)-1-((S)-2-(4-((1r,4S)-4-((4-(4-chloro-7,7-dimethyl-5-oxo-5,7-dihydroindolo[1,2-a]quinazolin-10-yl)piperidin-1-yl)methyl)cyclohexyl)-1H-1,2,3-triazol-1-yl)-3-methylbutanoyl)-4-hydroxy-N-((R)-1-(4-(4-methylthiazol-5-yl)phenyl)-2-morpholinoethyl)pyrrolidine-2-carboxamide] | < 10 | > 90 | > 1000 | 50 to 69 |  |
| Cc1ncsc1-c1ccc([C@H](C)NC(=O)[C@@H]2C[C@@H](O)CN2C(=O)[C@H](C2CCN(C(=O)CN3CCC(c4ccc5c(c4)-n4c(nc(=O)c6c(Cl)cccc64)C54CCCCC4)CC3)CC2)n2cc(C3CC3)nn2)cc1 [Compound A105, (2S,4R)-1-((S)-2-(1-(2-(4-(4′-chloro-5′-oxo-5′H-spiro[cyclohexane-1,7′-indolo[1,2-a]quinazolin]-10′-yl)piperidin-1-yl)acetyl)piperidin-4-yl)-2-(4-cyclopropyl-1H-1,2,3-triazol-1-yl)acetyl)-4-hydroxy-N—((S)-1-(4-(4-methylthiazol-5-yl)phenyl)ethyl)pyrrolidine-2-carboxamide] | 100 to 1000 | 50 to 69 | > 1000 | < 50 |  |
| Cc1ncsc1-c1ccc([C@H](C)NC(=O)[C@@H]2C[C@@H](O)CN2C(=O)[C@H](C2CCN(C(=O)CCCN3CCC(c4ccc5c(c4)-n4c(nc(=O)c6c(Cl)cccc64)C54CCCCC4)CC3)CC2)n2cc(C3CC3)nn2)cc1 [Compound A106, (2S,4R)-1-((S)-2-(1-(4-(4-(4′-chloro-5′-oxo-5′H-spiro[cyclohexane-1,7′-indolo[1,2-a]quinazolin]-10′-yl)piperidin-1-yl)butanoyl)piperidin-4-yl)-2-(4-cyclopropyl-1H-1,2,3-triazol-1-yl)acetyl)-4-hydroxy-N—((S)-1-(4-(4-methylthiazol-5-yl)phenyl)ethyl)pyrrolidine-2-carboxamide] | 100 to 1000 | 70 to 90 | 100 to 1000 | < 50 |  |
| Cc1ncsc1-c1ccc([C@H](C)NC(=O)[C@@H]2C[C@@H](O)CN2C(=O)[C@H](C2CCN(C(=O)CCCCN3CCC(c4ccc5c(c4)-n4c(nc(=O)c6c(Cl)cccc64)C54CCCCC4)CC3)CC2)n2cc(C3CC3)nn2)cc1 [Compound A107, (2S,4R)-1-((S)-2-(1-(5-(4-(4′-chloro-5′-oxo-5′H-spiro[cyclohexane-1,7′-indolo[1,2-a]quinazolin]-10′-yl)piperidin-1-yl)pentanoyl)piperidin-4-yl)-2-(4-cyclopropyl-1H-1,2,3-triazol-1-yl)acetyl)-4-hydroxy-N—((S)-1-(4-(4-methylthiazol-5-yl)phenyl)ethyl)pyrrolidine-2-carboxamide] | 100 to 1000 | 70 to 90 | > 1000 | < 50 |  |
| Cc1ncsc1-c1ccc([C@H](C)NC(=O)[C@@H]2C[C@@H](O)CN2C(=O)[C@H](C2CCN(C(=O)[C@H]3CC[C@H](CN4CCC(c5ccc6c(c5)-n5c(nc(=O)c7c(Cl)cccc75)C65CCCCC5)CC4)CC3)CC2)n2cc(C3CC3)nn2)cc1 [Compound A108, (2S,4R)-1-((S)-2-(1-((1r,4S)-4-((4-(4′-chloro-5′-oxo-5′H-spiro[cyclohexane-1,7′-indolo[1,2-a]quinazolin]-10′-yl)piperidin-1-yl)methyl)cyclohexane-1-carbonyl)piperidin-4-yl)-2-(4-cyclopropyl-1H-1,2,3-triazol-1-yl)acetyl)-4-hydroxy-N—((S)-1-(4-(4-methylthiazol-5-yl)phenyl)ethyl)pyrrolidine-2-carboxamide] | < 10 | 70 to 90 | > 1000 | < 50 |  |

Continued, values first:

| DC50 (SMARCA2) [nM] | Dmax (SMARCA2) [%] | DC50 (SMARCA4) [nM] | Dmax (SMARCA4) [%] | SMARC A4 Hela HiBit DC50(nM) (SMARCA4) | SMILES |
| --- | --- | --- | --- | --- | --- |
| 100 to 1000 | 70 to 90 | > 1000 | 50 to 69 |  | Cc1ncsc1-c1ccc([C@H](C)NC(=O)[C@@H]2C[C@@H](O)CN2C(=O)[C@H](C2CCNCC2)n2cc([C@H]3CC[C@H](CN4CCC(c5ccc6c(c5)-n5c(nc(=O)c7c(Cl)cccc75)C65CCCCC5)CC4)CC3)nn2)cc1 [Compound A109, (2S,4R)-1-((S)-2-(4-((1r,4S)-4-((4-(4′-chloro-5′-oxo-5′H-spiro[cyclohexane-1,7′-indolo[1,2-a]quinazolin]-10′-yl)piperidin-1-yl)methyl)cyclohexyl)-1H-1,2,3-triazol-1-yl)-2-(piperidin-4-yl)acetyl)-4-hydroxy-N—((S)-1-(4-(4-methylthiazol-5-yl)phenyl)ethyl)pyrrolidine-2-carboxamide] |
| 10 to 100 | > 90 | > 1000 | 50 to 69 |  | Cc1ncsc1-c1ccc([C@H](C)NC(=O)[C@@H]2C[C@@H](O)CN2C(=O)[C@H](C2CCN(C)CC2)n2cc([C@H]3CC[C@H](CN4CCC(c5ccc6c(c5)-n5c(nc(=O)c7c(Cl)cccc75)C65CCCCC5)CC4)CC3)nn2)cc1 [Compound A110, (2S,4R)-1-((S)-2-(4-((1r,4S)-4-((4-(4′-chloro-5′-oxo-5′H-spiro[cyclohexane-1,7′-indolo[1,2-a]quinazolin]-10′-yl)piperidin-1-yl)methyl)cyclohexyl)-1H-1,2,3-triazol-1-yl)-2-(1-methylpiperidin-4-yl)acetyl)-4-hydroxy-N—((S)-1-(4-(4-methylthiazol-5-yl)phenyl)ethyl)pyrrolidine-2-carboxamide] |
| < 10 | > 90 | 10 to 100 | 70 to 90 |  | CC(=O)N1CCC([C@@H](C(=O)N2C[C@H](O)C[C@H]2C(=O)N[C@@H](C)c2ccc(-c3scnc3C)cc2)n2cc([C@H]3CC[C@H](CN4CCC(c5ccc6c(c5)-n5c(nc(=O)c7c(Cl)cccc75)C65CCCCC5)CC4)CC3)nn2)CC1 [Compound A111, (2S,4R)-1-((S)-2-(1-acetylpiperidin-4-yl)-2-(4-((1r,4S)-4-((4-(4′-chloro-5′-oxo-5′H-spiro[cyclohexane-1,7′-indolo[1,2-a]quinazolin]-10′-yl)piperidin-1-yl)methyl)cyclohexyl)-1H-1,2,3-triazol-1-yl)acetyl)-4-hydroxy-N—((S)-1-(4-(4-methylthiazol-5-yl)phenyl)ethyl)pyrrolidine-2-carboxamide] |
| < 10 | > 90 | 100 to 1000 | 50 to 69 |  | Cc1ncsc1-c1ccc([C@H](C)NC(=O)[C@@H]2C[C@@H](O)CN2C(=O)[C@H](C2CCN(C3CCOCC3)CC2)n2cc([C@H]3CC[C@H](CN4CCC(c5ccc6c(c5)-n5c(nc(=O)c7c(Cl)cccc75)C65CCCCC5)CC4)CC3)nn2)cc1 [Compound A112, (2S,4R)-1-((S)-2-(4-((1r,4S)-4-((4-(4′-chloro-5′-oxo-5′H-spiro[cyclohexane-1,7′-indolo[1,2-a]quinazolin]-10′-yl)piperidin-1-yl)methyl)cyclohexyl)-1H-1,2,3-triazol-1-yl)-2-(1-(tetrahydro-2H-pyran-4-yl)piperidin-4-yl)acetyl)-4-hydroxy-N—((S)-1-(4-(4-methylthiazol-5-yl)phenyl)ethyl)pyrrolidine-2-carboxamide] |
| < 10 | > 90 |  | 70 to 90 | No fit | Cc1ncsc1-c1ccc([C@H](C)NC(=O)[C@@H]2C[C@@H](O)CN2C(=O)[C@H](C2CCN(C(=O)[C@@H]3COCCO3)CC2)n2cc([C@H]3CC[C@H](CN4CCC(c5ccc6c(c5)-n5c(nc(=O)c7c(Cl)cccc75)C65CCCCC5)CC4)CC3)nn2)cc1 [Compound A113, (2S,4R)-1-((S)-2-(1-((S)-1,4-dioxane-2-carbonyl)piperidin-4-yl)-2-(4-((1r,4S)-4-((4-(4′-chloro-5′-oxo-5′H-spiro[cyclohexane-1,7′-indolo[1,2-a]quinazolin]-10′-yl)piperidin-1-yl)methyl)cyclohexyl)-1H-1,2,3-triazol-1-yl)acetyl)-4-hydroxy-N—((S)-1-(4-(4-methylthiazol-5-yl)phenyl)ethyl)pyrrolidine-2-carboxamide] |
